From US9096538B2, “Pharmaceutical comprising PPAR agonist” (Senju Pharmaceutical Co., Ltd., priority 2005, dated 2015)

Legend:
[1] = system: rabbit corneal epithelial cell; test: Test Example 1: increase in cell number, cultured rabbit corneal epithelial cell (Cell Counting Kit-8); assay type: cell-based; conditions: 48 hours, no addition group = 100%, average ± standard deviation, N = 5
Method: A male rabbit (Japanese white, […] LABES Co., Ltd.) was used. The experimental animal was used according to the International Guiding Principles for Biomedical Research Involving Animals.
A corneal epithelial cell was prepared from rabbit eyeballs. A cornea was excised from isolated eyeballs, and stored in Dulbecco's phosphate buffered saline (D-PBS; Invitrogen), and this was transferred to a clean bench. The following cell preparation procedures were all performed sterilely.
The isolated corneal segment was washed with D-PBS with 1% penicillin-streptomycin (Invitrogen) added thereto three times, and was transferred to a minimum essential medium (MEM; Invitrogen). A corneal endothelial cell and a Descemet's membrane of the corneal segment immersed in MEM were peeled with a knife (Alcon) for ocular operation, and the corneal segment (corneal stroma and corneal epithelium) after peeling was transferred to MEM to which dispase II (Roche Diagnostics) had been added to 2.4 U/mL. This was incubated at 37° C. for 1 hour and, thereafter, the dispase II-treated corneal segment was transferred to MEM. The corneal epithelium of the corneal segment immersed in MEM was peeled with the knife for ocular operation, and the corneal segment residue (corneal stroma) was removed from MEM. The peeled corneal epithelial cell and the MEM containing same were recovered in a 50 mL centrifuge tube, subjected to centrifugation at 1,500 rpm for 5 minutes at room temperature. The supernatant was discarded to give a corneal epithelial cell layer. To the corneal epithelial cell layer was added 1 mL of trypsin-EDTA (Invitrogen) and, after thorough mixing, the cells were incubated at 37° C. for 5 minutes to dissociate adhesion between the cells. To this was added 9 mL of MEM containing 10% fetal bovine serum (FBS; Invitrogen) to stop the enzymatic reaction, and this was subjected again to centrifugation at room temperature and 1,500 rpm for 5 minutes to obtain the corneal epithelial cell layer. To the resulting corneal epithelial cell layer was added […] of a serum-free liquid medium for proliferating a normal rabbit corneal epithelial cell (RCGM2; Kurabo Industries LTD.) to suspend the cell, and this was seeded into a culture dish (IWAKI) for culturing a cell having a diameter of 10 cm, to which 9 mL of RCGM2 had been added. […] The culture medium was exchanged with a fresh culture medium every 48 hours until the test day.
As the test substance, the following compounds were used. • PPARα agonist: WY-14643 (Calbiochem) and fenofibrate (Sigma-Aldrich) • PPARδ agonist: L-165041 (Sigma-Aldrich)
(§1) For studying the effect of promoting cell proliferation by each test substance, a culture medium prepared by removing a mouse-derived epithelial growth factor (mEGF) attached to RCGM2, from RCGM2, was used as a basal medium, while as a positive control for confirming the effect of promoting cell proliferation, a medium with an mEGF added thereto (basal medium+10 ng/mL mEGF) was used according to instructions of an RCGM2 preparation protocol.
As a culture dish for a test of cell proliferation promotion, a 96-well culture dish for tissue culture (Corning) was used. On the day before the test, each 50 μL of 0.01% type I collagen (Nitta Gelatin Inc.) was dispensed into each well of the culture dish, and coating was performed at 4° C. until immediately before the test. On the test day, after a type I collagen solution was removed, the bottom of the culture dish was washed three times using D-PBS, and this was used in the test as a collagen-treated culture dish.
In the test, a rabbit corneal epithelial cell which had been cultured to subconfluent in a culture dish having a diameter of 10 cm was used. After the culture medium was removed, the bottom of the culture dish was washed two times using D-PBS, to this was added 1 mL of trypsin-EDTA, this was incubated at 37° C. for 5 minutes and thereby, the cell was peeled from the bottom of the culture dish. […]

[2] = system: monkey meibomian gland epithelial cell; test: Test Example 3: increase in cell number, cultured monkey meibomian gland epithelial cell (Cell Counting Kit-8); assay type: cell-based, cynomolgus monkey; conditions: 48 + 48 hours; for Cell proliferation (%): no addition group = 100%, average ± standard deviation, N = 5
Method: A female cynomolgus monkey (Environmental Biological Life Science Research Center) was used. The experimental animal was used according to the International Guiding Principles for Biomedical Research Involving Animals.
A meibomian gland epithelial cell was prepared from a monkey eyelid. An eyelid was isolated, and stored in Dulbecco's phosphate buffered saline (D-PBS; Invitrogen), and this was transferred to a clean bench. The following cell preparation procedures were all performed sterilely.
After the isolated eyelid was immersed in 80% ethanol for 30 seconds, the eyelid was washed with D-PBS with 1% penicillin-streptomycin (Invitrogen) added thereto three times, and transferred to a minimum essential medium (MEM; Invitrogen). A fat tissue and a muscle tissue surrounding a meibomian gland tissue were removed under a stereomicroscope, and this was transferred to MEM containing 0.475 U/mL of collagenase A (Roche Diagnostics) and 2.4 U/mL of dispase II (Roche Diagnostics), and incubated at 37° C. overnight. After completion of incubation, the enzyme-treated tissue was placed again under the stereomicroscope, eyelashes and an eyelid connective tissue were removed, and a meibomian gland tissue was isolated. To the isolated gland tissue was added 1 mL of trypsin-EDTA (Invitrogen), and this was incubated at 37° C. for 5 minutes. After incubation, to this was added 9 mL of MEM containing 10% FBS to stop the enzymatic reaction, then, suction and exhaustion were repeated five times using a 10 mL pipette and, further, five times using an injection syringe equipped with a 21 G injection needle to disperse tissue-constituting cells. […] The cell suspension which had passed through the filter was recovered in a 50 mL centrifuge tube, and subjected to centrifugation at room temperature and 1,500 rpm for 5 minutes. To a cell layer containing an objective cell obtained by centrifugation was added 80 μL of D-PBS containing 0.5% bovine serum albumin (BSA; Sigma-Aldrich) to sufficiently suspend the cell, to this was added 20 μL of Anti-Fibroblast Microbeads (Militenyi Biotec), and this was allowed to stand at room temperature for 30 minutes. After completion of the reaction with an antibody, to this was added 2 mL of D-PBS containing 0.5% BSA, and this was subjected again to centrifugation at room temperature and 1,500 rpm for 5 minutes. To a cell layer containing an objective cell obtained by centrifugation was added 1 mL of D-PBS containing 0.5% BSA to sufficiently suspend the cell, and this was added dropwise to an LD column (Militenyi Biotec) equilibrated in advance using a column washing solution (D-PBS containing 2 mM EDTA (Dojindo Laboratories) and 0.5% BSA). Then, 2 mL of the column washing solution was added dropwise to the LD column. […] The cell recovered in the centrifuge tube was subjected again to centrifugation at room temperature and 1,500 rpm for 5 minutes to remove the supernatant. To this precipitation was added 1 mL of Defined Keratinocyte-Serum Free Medium (DK-SFM; Invitrogen) to suspend the cell and thereby, a meibomian gland epithelial cell suspension was prepared. The prepared cell was seeded on a culture dish (IWAKI) for cell culturing having a diameter of 3.5 cm which had been coated with a type I collagen solution (Nitta Gelatin Inc.) in advance, and to which 3 mL of DK-SFM had been added. The seeded cell was cultured in an incubator (SANYO) set at 37° C., 5% CO2, 95% air, and 100% humidity, and the culture medium was exchanged with a fresh culture medium every 48 hours until the test day.
Each test substance was dissolved in ethanol (Wako Pure Chemical Industries, Ltd.) to a 200-fold concentration of a final concentration in the culture medium, and this was stored at −80° C. until immediately before use.
As a culture dish for a cell proliferation promotion test, a 96-well culture dish for tissue culture (Corning) was used.

[3] = system: rabbit corneal epithelial cell; test: Test Example 2: increase in cell number, cultured rabbit corneal epithelial cell, 120 hours (Cell Counting Kit-8); assay type: cell-based; conditions: mEGF 10 ng/mL, no addition group = 100%, average ± standard deviation, N = 5
Method: A male rabbit (Japanese white, weight: about 1.5 kg, […] LABES Co., Ltd.) was used. The experimental animal was used according to the International Guiding Principles for Biomedical Research Involving Animals.
A rabbit corneal epithelial cell was prepared using the same process as that of (Test example 1).
As the test substance, the following compounds were used. • PPARδ agonist: L-165041 (Sigma-Aldrich) and GW-501516 (Alexis)
as §1
Collagen treatment of the culture dish was performed using the same process as that of (Test Example1).
In the test, a rabbit corneal epithelial cell which had been cultured to subconfluent in a culture dish having a diameter of 10 cm was used. After the culture medium was removed, the bottom of the culture dish was washed two times using D-PBS, to this was added 1 mL of trypsin-EDTA, this was incubated at 37° C. for 5 minutes and thereby, the cell was peeled from the bottom of the culture dish. After incubation, 9 mL of MEM containing 10% FBS was added to the culture dish to stop the enzymatic reaction, and this was subjected to centrifugation at room temperature and 1,500 rpm for 5 minutes to obtain a corneal epithelial cell layer. To the resulting cell was added an appropriate amount of RCGM2 to a cell concentration of 1×10^5 cells/mL to suspend the cell. Each 64 μL of this cell suspension was dispensed in each well at the cell number per bottom area (0.32 cm^2) of the collagen-treated 96-well culture dish for tissue culture of […]. […] After 24 hours from cell seeding, the culture medium was discarded, and each 100 μL of the following culture media were freshly dispensed into each well of the culture dish. • [1] Only basal medium (no addition group) • [2] Basal medium+mEGF (final concentration: 10 ng/mL; positive control group) • [3] Basal medium+L-165041 (final concentration: 0.1 μM and 1 μM) • [4] Basal medium+GW-501516 (final concentration: 0.01 μM and 0.1 μM)
The culture supernatant of each well was removed every 48 hours from exchange of the culture medium containing a test substance, and each 100 μL of the freshly prepared culture medium was dispensed into each well.

[4] = system: normal human corneal epithelial cell; test: Test Example 5: increase in cell number, normal human corneal epithelial cell, 24 hours (Cell Counting Kit-8); assay type: cell-based; conditions: mEGF 1 ng/mL, no addition group = 100%, average ± standard deviation, N = 3 to 4
Method: (§2) A normal human corneal epithelial cell (KURABO) was used.
As the test substance, the following compounds were used. PPARδ agonist: L-165041 (Sigma-Aldrich), GW-501516 (Alexis)
In addition, as a positive control for confirming the cell proliferation promoting effect, a medium in which a mouse-derived epithelial growth factor (mEGF) contained in an HCGS proliferation additive set (KURABO) was added to a basal medium (basal medium+1 ng/mL mEGF) was used.
This cell suspension was seeded on a fibronectin-coated multiwell plate (24 well, BECTON DICKINSON) so that the cell number became 2×10^4 cells/500 μL/well (since the bottom area is 2 cm^2, the number is 1×10^4 cells/cm^2).
Further, 24 hours thereafter, the culture medium was exchanged with each 400 μL of the following culture media. • [1] Only basal medium (no addition group) • [2] Basal medium+mEGF (final concentration: 1 ng/mL; positive control group) • [3] Basal medium+L-165041 (final concentration: 0.01 μM and 0.1 μM) • [4] Basal medium+GW-501516 (final concentration: 0.001 μM and 0.01 μM)

[5] = system: normal human corneal epithelial cell; test: Test Example 6: increase in cell number, normal human corneal epithelial cell, 48 hours (Cell Counting Kit-8); assay type: cell-based; conditions: 10^−8 M, no addition group = 100%, average ± standard deviation, N = 4 to 5
Method: as §2
As the test substance, the following compounds were used. • PPARδ Agonist: GW-501516 (Alexis), GW-0742 (Sigma-Aldrich)
Only basal medium (no addition group) • [2] Basal medium+GW-501516 (final concentration: 0.01 μM) • [3] Basal medium+GW-0742 (final concentration: 0.01 μM)

## CC(C)OC(=O)C(C)(C)Oc1ccc(C(=O)c2ccc(Cl)cc2)cc1 [fenofibrate, 1-methylethyl 2-(4-(4-chlorobenzoyl)phenoxy)-2-methylpropionate]
[1]; 10^−5 M
  Cell proliferation (%): 147.0 ± 3.2%
[1]; 10^−6 M
  Cell proliferation (%): 147.3 ± 11.8%
[2]; 10^−5 M
  Cell proliferation (%): 127.8 ± 5.2%
[2]; 10^−6 M
  Cell proliferation (%): 114.5 ± 4.5%
[2]; p<0.01 where significant
  cell proliferation compared to the no addition group (in words): significantly higher than in the no addition group

## Cc1cccc(Nc2cc(Cl)nc(SCC(=O)O)n2)c1C [WY-14643, ((4-chloro-6-((2,3-dimethylphenyl)amino)-2-pyrimidinyl)thio)acetic acid]
[1]; 10^−6 M
  Cell proliferation (%): 155.5 ± 9.4%
[1]; 10^−7 M
  Cell proliferation (%): 148.9 ± 15.0%

## mEGF: mouse-derived epithelial growth factor, positive control for cell proliferation (NSYPGCPSSYDGYCLNGGVCMHIESLDSYTCNCVIGYSGDRCQTRDLRWWELR; not fully specified; Epidermal growth factor; UniProt P01132 977-1029, looked up)
[1]; mEGF 10 ng/mL
  Cell proliferation (%): 144.1 ± 23.1%
[3]
  Cell proliferation (%): 222.1 ± 50.9%
[4]
  Cell proliferation (%): 112.1 ± 1.5%

## Cc1cc(SCc2sc(-c3ccc(C(F)(F)F)c(F)c3)nc2C)ccc1OCC(=O)O [GW-0742, (4-(((2-(3-fluoro-4-(trifluoromethyl)phenyl)-4-methyl-5-thiazolyl)methyl)thio)-2-methylphenoxy)acetic acid]
[5]
  Cell proliferation (%): 124.1 ± 13.5%

## Cc1c(C)c2c(c(C)c1O)CCC(C)(COc1ccc(CC3SC(=O)NC3=O)cc1)O2 (stereo not shown) [troglitazone]
[2]; 10^−6 M
  Cell proliferation (%): 99.9 ± 1.9%
[2]; 10^−7 M
  Cell proliferation (%): 101.6 ± 4.0%
